Where two headings read alike, the source gives them in different places. *1 amine or outer side, *2 acyl side, *3 side chain or, on linkers, in order; H or OH if unused. Where a SMILES comes first, the peptide text is derived from it. Bridges are numbered along the chain shown (N, C = ends). [ ]: non-standard residue; d: D form. The star is where a group is joined. hPhe(3-Cl-4-CF3) = N[C@@H](CCc1ccc(C(F)(F)F)c(Cl)c1)C(=O)O; NPrPhe(4-CF3) = CCCN[C@@H](Cc1ccc(C(F)(F)F)cc1)C(=O)O; X3 = CCCN([C@H](C(=O)[*:2])C1CCCC1)[*:1]; NMeGly(cPent) = CN[C@H](C(=O)O)C1CCCC1; NMeD = CN[C@@H](CC(=O)O)C(=O)O; NMeL = CN[C@@H](CC(C)C)C(=O)O; Morpholide = C1CN(*)CCO1; NMeA = CN[C@@H](C)C(=O)O; Ac5c = NC1(C(=O)O)CCCC1; Aze = O=C(O)[C@@H]1CCN1; Sar = CNCC(=O)O
What was measured:
[1] = target: GDP-bound KRAS wild-type protein (Homo sapiens, UniProt P01116); assay: Binding to KRAS by surface plasmon resonance (SPR), Single Cycle Kinetics; conditions: GDP-bound KRAS wild-type protein
Sequence of GDP-bound KRAS wild-type protein (P01116 whole entry): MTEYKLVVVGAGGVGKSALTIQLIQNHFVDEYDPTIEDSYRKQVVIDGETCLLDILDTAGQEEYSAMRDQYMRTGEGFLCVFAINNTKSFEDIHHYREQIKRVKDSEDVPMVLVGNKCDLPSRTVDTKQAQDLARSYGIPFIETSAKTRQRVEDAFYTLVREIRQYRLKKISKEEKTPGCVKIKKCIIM

[2] = target: GDP-bound NRAS wild-type protein (Homo sapiens, UniProt P01111); assay: Binding to NRAS by surface plasmon resonance (SPR), Single Cycle Kinetics; conditions: for NRAS/KRAS (ratio of KD value for NRAS to KD value for KRAS): SPR, GDP-bound NRAS wild-type protein vs GDP-bound KRAS wild-type protein; for NRAS/KRAS (ratio of KD value with respect to GDP-bound NRAS wild-type protein to KD value with respect to KRAS): SPR KD ratio NRAS/KRAS, class symbols
Sequence of GDP-bound NRAS wild-type protein (P01111 whole entry): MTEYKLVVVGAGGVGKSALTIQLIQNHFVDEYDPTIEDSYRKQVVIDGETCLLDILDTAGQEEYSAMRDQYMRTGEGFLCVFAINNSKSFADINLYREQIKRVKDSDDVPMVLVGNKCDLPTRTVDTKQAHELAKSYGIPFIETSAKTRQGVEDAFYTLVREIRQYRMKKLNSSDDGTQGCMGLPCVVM

[3] = target: GDP-bound HRAS wild-type protein (Homo sapiens, UniProt P01112); assay: Binding to HRAS by surface plasmon resonance (SPR), Single Cycle Kinetics; conditions: for HRAS/KRAS (ratio of KD value for HRAS to KD value for KRAS): SPR, GDP-bound HRAS wild-type protein vs GDP-bound KRAS wild-type protein; for HRAS/KRAS (ratio of KD value with respect to GDP-bound HRAS wild-type protein to KD value with respect to KRAS): SPR KD ratio HRAS/KRAS, class symbols
Sequence of GDP-bound HRAS wild-type protein (P01112 whole entry): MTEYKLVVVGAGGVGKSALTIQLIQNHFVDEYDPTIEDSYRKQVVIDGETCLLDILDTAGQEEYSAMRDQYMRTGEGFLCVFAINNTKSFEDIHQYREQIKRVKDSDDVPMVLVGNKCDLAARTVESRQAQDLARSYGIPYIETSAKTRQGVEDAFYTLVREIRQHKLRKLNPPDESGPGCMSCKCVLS

[4] = system: human lung cancer strain NCI-H441;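 note: cell proliferation inhibition after four days measured by CellTiter-Glo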
[5] = SPR Single Cycle Kinetics, 1:1 binding model, read-out: KRAS KD
[6] = SPR, Single Cycle Kinetics, 1:1 binding model, read-out: KRAS KD
[7] = SPR, Single Cycle Kinetics, read-out: KRAS KD

SMILES | Kd [1, 5] [M] | NRAS/KRAS (ratio of KD value for NRAS to KD value for KRAS) [2] | HRAS/KRAS (ratio of KD value for HRAS to KD value for KRAS) [3] | IC50 [4] [nM] | Kd [1, 6] [M] | NRAS/KRAS (ratio of KD value for NRAS to KD value for KRAS) ([2]; KD ratio class) | HRAS/KRAS (ratio of KD value for HRAS to KD value for KRAS) ([3]; KD ratio class) | NRAS/KRAS (ratio of KD value with respect to GDP-bound NRAS wild-type protein to KD value with respect to KRAS) [2] | HRAS/KRAS (ratio of KD value with respect to GDP-bound HRAS wild-type protein to KD value with respect to KRAS) [3] | Kd [1, 7] [M] | Kd ([1]; KRAS KD (M), SPR Single Cycle Kinetics, 1:1 binding model) [M]
CCCN1C(=O)CN(C)C(=O)CN(C)C(=O)[C@H]([C@@H](C)CC)NC(=O)[C@H](CC(C)C)N(C)C(=O)C[C@@H](C(=O)N2CCOCC2)N(C)C(=O)[C@H](C2CCCC2)N(C)C(=O)C2(CCCC2)NC(=O)CN(C)C(=O)[C@H](CCc2ccc(C(F)(F)F)c(Cl)c2)NC(=O)CN(C)C(=O)[C@@H]1Cc1ccc(C(F)(F)F)cc1 [PP0266] ([NMeL]I[Sar][Sar][NPrPhe(4-CF3)][Sar][hPhe(3-Cl-4-CF3)][Sar][Ac5c][NMeGly(cPent)][NMeD]-Morpholide; lactam N-11) | 2e-10 | B (a compound having 3 or more and less than 10 is denoted as B) | C (A compound having a KD ratio of 0.1 or more and less than 3 is denoted as C) | 15.2 |  |  |  |  |  |  | 
CCO[C@@H]1C[C@H]2C(=O)NC3(CCC3)C(=O)N(C)[C@@H](C3CCCC3)C(=O)N(C)[C@H](C(=O)N3CCOCC3)CC(=O)N(C)[C@@H](CC3CCCCC3)C(=O)N[C@@H]([C@@H](C)CC)C(=O)N(C)CC(=O)N(C)[C@H]3C/C=C\CCN(C3=O)[C@@H](Cc3ccc(C)cc3)C(=O)N(C)CC(=O)N[C@@H](CCc3cc(F)c(C(F)(F)F)c(F)c3)C(=O)N2C1 [PP1420] |  |  |  | 31.4 | 3.5e-10 | A (a compound having 10 or more and less than 20 is denoted as A) | A (a compound having 10 or more and less than 20 is denoted as A) |  |  |  | 
CC[C@H](C)[C@@H]1NC(=O)[C@H](COC)N(C)C(=O)C[C@@H](C(=O)N(C)C)N(C)C(=O)[C@H](C2CCCCC2)N(C)C(=O)C2(CC(C)(C)C2)NC(=O)[C@@H]2C[C@@H](OC3CCC3)CN2C(=O)[C@H](CCc2cc(F)c(C(F)(F)F)c(F)c2)NC(=O)CN(C)C(=O)[C@H](Cc2ccc(C(F)(F)F)cc2)N2CC/C=C\C[C@@H](C2=O)N(C)C(=O)CN(C)C1=O [PP2655] | 1e-10 |  |  | 17 |  |  |  | AA (a compound having 20 or more is denoted as AA) | A (a compound having 10 or more and less than 20 is denoted as A) |  | 
CCC[C@H]1C(=O)N[C@@H]([C@@H](C)CC)C(=O)N(C2CC2)CC(=O)N(C)[C@H]2C/C=C\CCN(C2=O)[C@@H](Cc2ccc(C(F)(F)F)cc2)C(=O)N(C)CC(=O)N[C@@H](CCc2ccc(Cl)c(Cl)c2)C(=O)N2C[C@H](OCC)C[C@H]2C(=O)NC2(CC(C)(C)C2)C(=O)N(C)[C@@H](CC(C)(C)C)C(=O)N(C)[C@H](C(=O)N(C)C)CC(=O)N1C [PP2749] | 8.7e-10 |  |  | 22.1 |  |  |  | AA (a compound having 20 or more is denoted as AA) | A (a compound having 10 or more and less than 20 is denoted as A) |  | 
CCO[C@@H]1C[C@H]2C(=O)NC3(CCC3)C(=O)N(C)[C@@H](C(CC)CC)C(=O)N(C)[C@H](C(=O)N(C)C)CC(=O)N(C)[C@@H](CC3CC3)C(=O)N[C@@H]([C@@H](C)CC)C(=O)N(C)CC(=O)N(C)[C@H]3C/C=C\CCN(C3=O)[C@@H](Cc3ccc(C(F)(F)F)cc3)C(=O)N(C)CC(=O)N[C@@H](CCc3cc(F)c(C(F)(F)F)c(F)c3)C(=O)N2C1 [PP1203] |  |  |  | 20.8 | 2.3e-10 | A (a compound having 10 or more and less than 20 is denoted as A) | A (a compound having 10 or more and less than 20 is denoted as A) |  |  |  | 
CC[C@H](C)[C@@H]1NC(=O)[C@H](CC2CC2)N(C)C(=O)C[C@@H](C(=O)N2CCOCC2)N(C)C(=O)[C@H](C2CCCC2)N(C)C(=O)C2(CCCC2)NC(=O)[C@@H]2CCCN2C(=O)[C@H](CCc2ccc(C(F)(F)F)c(Cl)c2)NC(=O)CN(C)C(=O)[C@H](Cc2ccc(C(F)(F)F)cc2)N2C[C@H](C)CC[C@@H](C2=O)N(C)C(=O)CN(C)C1=O [PP1343] |  |  |  | 19.3 | 2.7e-10 | A (a compound having 10 or more and less than 20 is denoted as A) | B (a compound having 3 or more and less than 10 is denoted as B) |  |  |  | 
CC[C@H](C)[C@@H]1NC(=O)[C@H](CC)N(C)C(=O)C[C@@H](C(=O)N(C)C)N(C)C(=O)[C@H](C2CCCC2)N(C)C(=O)C2(CCCC2)NC(=O)[C@@H]2CCCN2C(=O)[C@H](CCc2cc(F)c(C(F)(F)F)c(F)c2)NC(=O)CN(C)C(=O)[C@H](Cc2ccc(C(F)(F)F)cc2)N2CC/C=C\C[C@@H](C2=O)N(C)C(=O)CN(C)C1=O [PP1273, (2S,8S,14S,20S,23S,27S,30S,36S,38Z)-20-cyclopentyl-8-[2-[3,5-difluoro-4-(trifluoromethyl)phenyl]ethyl]-27-ethyl-N,N,4,19,22,26,32,35-octamethyl-30-[(1S)-1-methylpropyl]-3,6,9,15,18,21,25,28,31,34,42-undecaoxo-2-[[4-(trifluoromethyl)phenyl]methyl]spiro[1,4,7,10,16,19,22,26,29,32,35-undecazatricyclo[34.5.1.0^10,14]dotetracont-38-ene-17,1′-cyclopentane]-23-carboxamide] |  |  |  | 16.5 | 1.2e-10 | A (a compound having 10 or more and less than 20 is denoted as A) | B (a compound having 3 or more and less than 10 is denoted as B) |  |  |  | 
CCOC[C@H]1C(=O)N[C@@H]([C@@H](C)CC)C(=O)N(C)CC(=O)N(C)[C@H]2C/C=C\CCN(C2=O)[C@@H](CC2CCC(F)(F)CC2)C(=O)N(C)CC(=O)N[C@@H](CCc2ccc(C(F)(F)F)c(Cl)c2)C(=O)N2C[C@H](OCC)C[C@H]2C(=O)NC2(CC(C)(C)C2)C(=O)N(C)[C@@H](C(CC)CC)C(=O)N(C)[C@H](C(=O)N(C)C)CC(=O)N1C [PP2460] |  | A (a compound having 10 or more and less than 20 is denoted as A) | A (a compound having 10 or more and less than 20 is denoted as A) | 18.7 |  |  |  |  |  | 7.1e-10 | 
CCCN1C(=O)[C@@H]2CCN2C(=O)[C@H](C)N(C)C(=O)[C@H]([C@@H](C)CC)NC(=O)[C@H](CC(C)C)N(C)C(=O)C[C@@H](C(=O)N2CCOCC2)N(C)C(=O)[C@H](C2CCCC2)N(C)C(=O)C2(CCCC2)NC(=O)[C@@H]2CCCN2C(=O)[C@H](CCc2ccc(C(F)(F)F)c(Cl)c2)NC(=O)CN(C)C(=O)[C@@H]1C1CCCC1 [PP0054] ([NMeL]I[NMeA][Aze][X3][Sar][hPhe(3-Cl-4-CF3)]P[Ac5c][NMeGly(cPent)][NMeD]-Morpholide; lactam N-11) |  | C (A compound having a KD ratio of 0.1 or more and less than 3 is denoted as C) | C (A compound having a KD ratio of 0.1 or more and less than 3 is denoted as C) | 82 |  |  |  |  |  |  | 4.5e-09
CCO[C@@H]1C[C@H]2C(=O)NC3(CC(C)(C)C3)C(=O)N(C)[C@@H](C3CCCCC3)C(=O)N(C)[C@H](C(=O)N(C)C)CC(=O)N(C)[C@@H](COC)C(=O)N[C@@H]([C@@H](C)CC)C(=O)N(C)CC(=O)N(C)[C@H]3C/C=C\CCN(C3=O)[C@@H](Cc3ccc(C)cc3)C(=O)N(C)CC(=O)N[C@@H](CCc3cc(F)c(C(F)(F)F)c(F)c3)C(=O)N2C1 [PP2659] | 1.9e-10 |  |  | 20.6 |  |  |  | A (a compound having 10 or more and less than 20 is denoted as A) | A (a compound having 10 or more and less than 20 is denoted as A) |  | 
CCO[C@@H]1C[C@H]2C(=O)NC3(CCC3)C(=O)N(C)[C@@H](C3CCCC3)C(=O)N(C)[C@H](C(=O)N(C)C)CC(=O)N(C)[C@@H](Cc3ccccc3F)C(=O)N[C@@H]([C@@H](C)CC)C(=O)N(C)CC(=O)N(C)[C@H]3CCCCCN(C3=O)[C@@H](Cc3ccc(C(F)(F)F)cc3)C(=O)N(C)CC(=O)N[C@@H](CCc3cc(F)c(C(F)(F)F)c(F)c3)C(=O)N2C1 [PP0934] |  | B (a compound having 3 or more and less than 10 is denoted as B) | B (a compound having 3 or more and less than 10 is denoted as B) | 51.8 |  |  |  |  |  | 7.2e-10 | 
CCCOC[C@H]1C(=O)N[C@@H]([C@@H](C)CC)C(=O)N2CCC[C@H]2C(=O)N(C)[C@H]2C/C=C\CCN(C2=O)[C@@H](Cc2ccc(C)cc2)C(=O)N(C)CC(=O)N[C@@H](CCc2cc(F)c(C(F)(F)F)c(F)c2)C(=O)N2C[C@H](C)C[C@H]2C(=O)NC2(CC(C)(C)C2)C(=O)N(C)[C@@H](C2CCCC2)C(=O)N(C)[C@H](C(=O)N(C)CC)CC(=O)N1C [PP2430] |  | AA (a compound having 20 or more is denoted as AA) | A (a compound having 10 or more and less than 20 is denoted as A) | 33.2 |  |  |  |  |  | 1.4e-09 | 
